What was measured:
Test in all cases: Kinobeads competition binding, HeLa Placenta lysate mix
Parameters in all cases: endogenous in cells
Details in all cases: 10 μM free compound
[1] = molecular target: BIKE (Homo sapiens, UniProt Q9NSY1)
Experimental: (§1) To one aliquot of cell lysate 10 μM of the free compound (FIG. 3, CZC31326) was added and allowed to bind to proteins in the lysate. Then the affinity matrix with the immobilized compound was added to capture proteins that were not interacting with the previously added free compound. Beads were separated from the lysate and bead bound proteins were eluted in SDS sample buffer and subsequently separated by SDS-Polyacrylamide gel electrophoresis (FIG. 10). Suitable gel bands were cut out and subjected to in-gel proteolytic digestion with trypsin. The second lysate aliquot was processed identically, however no free compound was added (DMSO solvent control). Peptides originating from samples 1 and 2 were labeled with iTRAQ reagents (iTRAQ 114 and iTRAQ 117) and the combined samples were analyzed with a nano-flow liquid chromatography system coupled online to a tandem mass spectrometer (LC-MS/MS) experiment followed by iTRAQ reporter ion quantification in the MS/MS spectra as described in Example 2.

[2] = molecular target: T1, AurA (Homo sapiens, UniProt O14965)
T1 sequence (O14965 1-403): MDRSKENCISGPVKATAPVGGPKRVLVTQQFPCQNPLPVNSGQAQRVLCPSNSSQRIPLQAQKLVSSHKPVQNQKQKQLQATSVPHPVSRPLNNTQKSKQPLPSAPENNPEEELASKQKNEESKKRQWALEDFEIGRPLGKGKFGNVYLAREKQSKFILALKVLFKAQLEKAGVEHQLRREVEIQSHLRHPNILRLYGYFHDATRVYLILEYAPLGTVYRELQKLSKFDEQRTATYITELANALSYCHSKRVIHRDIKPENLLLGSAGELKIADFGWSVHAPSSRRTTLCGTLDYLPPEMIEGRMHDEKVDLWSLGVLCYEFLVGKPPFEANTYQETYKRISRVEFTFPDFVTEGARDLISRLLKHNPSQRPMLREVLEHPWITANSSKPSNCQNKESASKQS
Experimental: as §1

[3] = molecular target: LYN (Homo sapiens, UniProt P07948)
Sequence of LYN (P07948 whole entry): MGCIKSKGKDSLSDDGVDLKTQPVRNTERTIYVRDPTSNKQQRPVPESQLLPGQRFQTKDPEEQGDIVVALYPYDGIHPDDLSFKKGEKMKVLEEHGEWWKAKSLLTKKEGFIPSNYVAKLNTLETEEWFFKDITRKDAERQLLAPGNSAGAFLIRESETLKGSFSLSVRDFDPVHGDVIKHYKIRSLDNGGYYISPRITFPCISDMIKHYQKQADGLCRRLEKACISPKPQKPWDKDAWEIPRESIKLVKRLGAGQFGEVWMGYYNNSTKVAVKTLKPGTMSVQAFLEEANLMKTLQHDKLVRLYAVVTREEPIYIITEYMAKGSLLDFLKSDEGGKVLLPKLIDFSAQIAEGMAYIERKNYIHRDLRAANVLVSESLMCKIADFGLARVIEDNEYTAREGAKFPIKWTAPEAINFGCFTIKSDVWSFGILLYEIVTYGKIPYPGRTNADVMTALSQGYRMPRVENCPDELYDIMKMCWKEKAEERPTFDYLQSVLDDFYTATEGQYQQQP
Experimental: as §1

[4] = molecular target: MPSK1 (Homo sapiens, UniProt O75716)
Sequence of MPSK1 (O75716 whole entry): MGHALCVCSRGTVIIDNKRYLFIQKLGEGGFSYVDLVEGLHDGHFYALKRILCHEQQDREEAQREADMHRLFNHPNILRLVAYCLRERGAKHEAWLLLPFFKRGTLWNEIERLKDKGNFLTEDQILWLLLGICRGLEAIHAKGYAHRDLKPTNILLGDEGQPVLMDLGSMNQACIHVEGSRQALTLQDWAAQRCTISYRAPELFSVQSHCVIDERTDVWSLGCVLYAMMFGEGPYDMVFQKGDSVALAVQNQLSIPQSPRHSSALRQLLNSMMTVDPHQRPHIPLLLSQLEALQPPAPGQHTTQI
Experimental: as §1

[5] = molecular target: T2, MAP3K5 (Homo sapiens, UniProt Q99683)
T2 sequence (Q99683 1-1374): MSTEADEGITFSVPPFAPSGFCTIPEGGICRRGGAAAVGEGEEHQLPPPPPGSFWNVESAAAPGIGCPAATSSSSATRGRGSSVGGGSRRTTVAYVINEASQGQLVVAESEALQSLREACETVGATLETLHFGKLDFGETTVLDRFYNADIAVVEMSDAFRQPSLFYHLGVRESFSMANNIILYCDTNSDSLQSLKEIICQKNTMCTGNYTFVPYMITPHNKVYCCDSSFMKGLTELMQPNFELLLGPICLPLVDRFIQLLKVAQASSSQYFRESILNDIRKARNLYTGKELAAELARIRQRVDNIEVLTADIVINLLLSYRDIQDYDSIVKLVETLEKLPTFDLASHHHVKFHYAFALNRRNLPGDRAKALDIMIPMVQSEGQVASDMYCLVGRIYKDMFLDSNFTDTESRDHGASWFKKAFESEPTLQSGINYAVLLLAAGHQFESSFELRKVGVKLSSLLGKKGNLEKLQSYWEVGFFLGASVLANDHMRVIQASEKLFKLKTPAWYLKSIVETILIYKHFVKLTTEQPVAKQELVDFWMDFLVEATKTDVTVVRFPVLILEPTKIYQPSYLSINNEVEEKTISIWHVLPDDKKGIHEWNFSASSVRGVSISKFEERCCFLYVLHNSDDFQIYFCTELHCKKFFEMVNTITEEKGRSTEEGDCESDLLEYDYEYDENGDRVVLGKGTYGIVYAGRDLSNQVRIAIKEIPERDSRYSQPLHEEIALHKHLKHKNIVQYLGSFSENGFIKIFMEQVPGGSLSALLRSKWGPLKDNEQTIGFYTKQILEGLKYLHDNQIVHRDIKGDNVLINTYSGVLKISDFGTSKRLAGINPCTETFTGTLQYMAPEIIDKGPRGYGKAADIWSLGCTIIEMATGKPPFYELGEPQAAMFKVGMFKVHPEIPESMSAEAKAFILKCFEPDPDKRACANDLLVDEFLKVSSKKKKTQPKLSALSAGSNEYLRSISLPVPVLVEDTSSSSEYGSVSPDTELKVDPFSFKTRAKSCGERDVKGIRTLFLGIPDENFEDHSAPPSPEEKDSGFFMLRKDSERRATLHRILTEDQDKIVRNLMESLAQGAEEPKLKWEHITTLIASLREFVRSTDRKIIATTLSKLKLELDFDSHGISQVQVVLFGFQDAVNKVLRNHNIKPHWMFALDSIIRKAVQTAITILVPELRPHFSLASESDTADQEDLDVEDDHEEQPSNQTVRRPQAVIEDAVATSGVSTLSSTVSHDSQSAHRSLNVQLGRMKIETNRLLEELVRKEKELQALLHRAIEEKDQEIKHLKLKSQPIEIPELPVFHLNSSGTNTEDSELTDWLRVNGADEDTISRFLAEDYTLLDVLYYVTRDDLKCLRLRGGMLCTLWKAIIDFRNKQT
Experimental: as §1

Sequence of BIKE (Q9NSY1 whole entry): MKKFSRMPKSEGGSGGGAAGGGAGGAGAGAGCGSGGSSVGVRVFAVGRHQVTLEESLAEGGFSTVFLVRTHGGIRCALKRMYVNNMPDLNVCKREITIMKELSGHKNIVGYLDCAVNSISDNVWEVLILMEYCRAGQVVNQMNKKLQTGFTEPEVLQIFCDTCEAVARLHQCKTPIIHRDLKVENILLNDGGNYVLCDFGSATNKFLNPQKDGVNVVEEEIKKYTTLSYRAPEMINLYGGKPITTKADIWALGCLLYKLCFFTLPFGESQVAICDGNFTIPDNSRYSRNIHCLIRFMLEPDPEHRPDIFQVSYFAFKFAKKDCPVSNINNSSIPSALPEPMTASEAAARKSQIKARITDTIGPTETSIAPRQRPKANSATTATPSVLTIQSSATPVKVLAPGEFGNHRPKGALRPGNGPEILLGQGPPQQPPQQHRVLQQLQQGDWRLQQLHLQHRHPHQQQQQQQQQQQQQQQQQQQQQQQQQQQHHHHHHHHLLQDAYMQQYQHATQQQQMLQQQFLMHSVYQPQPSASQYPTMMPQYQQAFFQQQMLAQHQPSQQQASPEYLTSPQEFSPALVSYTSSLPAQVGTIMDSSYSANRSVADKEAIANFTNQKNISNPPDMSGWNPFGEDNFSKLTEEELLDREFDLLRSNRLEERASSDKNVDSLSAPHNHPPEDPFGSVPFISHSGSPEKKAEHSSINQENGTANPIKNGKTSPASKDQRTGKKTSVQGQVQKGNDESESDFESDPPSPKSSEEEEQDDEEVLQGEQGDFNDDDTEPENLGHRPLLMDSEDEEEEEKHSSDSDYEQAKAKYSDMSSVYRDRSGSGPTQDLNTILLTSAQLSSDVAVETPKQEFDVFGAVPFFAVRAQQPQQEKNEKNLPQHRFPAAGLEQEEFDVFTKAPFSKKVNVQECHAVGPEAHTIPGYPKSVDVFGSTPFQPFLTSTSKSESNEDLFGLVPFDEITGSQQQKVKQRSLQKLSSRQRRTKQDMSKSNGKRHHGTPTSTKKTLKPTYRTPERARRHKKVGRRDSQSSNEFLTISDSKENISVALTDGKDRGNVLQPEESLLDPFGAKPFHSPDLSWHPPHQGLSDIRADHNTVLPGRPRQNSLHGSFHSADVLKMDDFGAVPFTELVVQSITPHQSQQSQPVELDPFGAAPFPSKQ

CS(=O)(=O)Nc1ccccc1Nc1nc(Nc2cccc(OCCN)c2)ncc1Cl [CZC31326, N-(2-(2-(3-(2-aminoethoxy)phenylamino)-5-chloropyrimidin-4-ylamino)phenyl)methanesulfonamide]
inhibition at 10 µM [1]: 92.9%
inhibition at 10 µM [2]: 94%
inhibition at 10 µM [3]: 76.1%
inhibition at 10 µM [4]: 91.5%
inhibition at 10 µM [5]: 86%

Reference: US20120270237A9, “METHODS FOR THE IDENTIFICATION OF KINASE INTERACTING MOLECULES AND FOR THE PURIFICATION OF KINASE PROTEINS” (Cellzone AG, priority 2009, published 2012)
